Blank lines part the entries; values can stand above or below the molecule they belong to.
Experiments:
Human recombinant COX II = molecular target: T1, Human recombinant COX II (Homo sapiens, UniProt P35354); test: Inhibition of cyclooxygenase II; format: biochemical
T1 construct: purchased Sigma C-0858; host or cells: Sf21 insect cells
T1 sequence (P35354 18-604): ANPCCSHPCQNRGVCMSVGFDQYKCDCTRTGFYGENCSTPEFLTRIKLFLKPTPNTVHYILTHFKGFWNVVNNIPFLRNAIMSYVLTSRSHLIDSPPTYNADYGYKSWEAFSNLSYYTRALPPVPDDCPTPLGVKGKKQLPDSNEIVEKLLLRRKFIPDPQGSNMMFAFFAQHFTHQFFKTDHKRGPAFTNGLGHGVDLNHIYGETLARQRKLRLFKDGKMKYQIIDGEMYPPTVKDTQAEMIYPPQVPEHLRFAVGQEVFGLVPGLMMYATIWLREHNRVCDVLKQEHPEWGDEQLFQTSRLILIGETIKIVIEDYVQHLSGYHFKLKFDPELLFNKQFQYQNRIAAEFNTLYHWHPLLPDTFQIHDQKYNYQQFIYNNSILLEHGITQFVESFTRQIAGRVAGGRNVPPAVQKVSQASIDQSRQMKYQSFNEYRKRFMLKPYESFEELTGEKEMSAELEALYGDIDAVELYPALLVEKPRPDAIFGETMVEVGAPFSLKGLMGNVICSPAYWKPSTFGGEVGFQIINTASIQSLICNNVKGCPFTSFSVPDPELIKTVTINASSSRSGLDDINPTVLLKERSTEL
Protocol: SS304L or vehicle was […] with 0.11 U enzyme, 1 mM reduced glutathione, 500 μM phenol and 1 μM hematin in Tris-HCl, pH 7.7 at 37° C. for 15 minutes. 0.3 μM arachidonic acid as substrate was added and the reaction was terminated by addition of 1 N HCl after 5 minutes. The converted PGE2 was measured by an Amersham EIA kit following centrifugation. SS304L was assayed at 10 and 100 μg/ml.

[1] = system: Human dermal fibroblasts (HFB); test: HFB proliferation (MTT); format: cell-based; settings: 72 hours; for Mean OD: MTT A570
Protocol: Human dermal fibroblasts (HFB) were cultured from foreskin with consent by cell emigration from ˜1 mm^3 skin pieces in DMEM+1 mM sodium pyruvate+2 mM glutamine+100 U/ml penicillin+100 ug/ml streptomycin+10% fetal calf serum (FCS) (C-DMEM) under humidified atmosphere containing 5% CO2 at 37° C.
1×10^4 HFB were seeded in a 96 multi-well culture dish. 48 hours later, the cells were treated with various concentrations of SS304L in C-DMEM under humidified atmosphere containing 5% CO2 at 37° C. The cells were exposed to drugs for 72 hours, and then treated with 0.5 mg/ml MTT for 4 hours at 37° C. The reduced formazan was dissolved in isopropanol containing 0.04 N HCl, and measured at A570 nm by an ELISA reader (Molecular Device).

[2] = Free radical scavenger, SOD mimetic activity (xanthine/xanthine oxidase/NBT); format: biochemical; settings: 6.1 μM
Protocol: SS304L or vehicle was incubated with 0.12 mM xanthine, 6 mU xanthine oxidase, 27 μM nitroblue tetrazolium (NBT), 0.11 mM EDTA, 0.005% bovine serum albumin and Na2CO3 at pH 10.5 at 25° C. for 20 minutes. Conversion of xanthine to uric acid +O^−+NBT to formazan was then determined by measurement of absorbance at 595 nm and percent inhibition by superoxide dismutase or SS304L was calculated.

[3] = system: full thickness excision wounds; test: Full thickness excision wound healing in mice; format: in vivo, Aging male ICR mice
Protocol: Aging male ICR mice at body weights of 40 to 50 grams (Age: 14 to 16 weeks) were lightly anesthetized with ether. 0.7 mm in diameter full thickness excisions were conducted at the dorsal back skin after shaving and 70% ethanol sterilization. Immediately after excision, the wounds were covered with either vehicle (sterile 1% carboxymethyl cellulose, 25 μl) at first wound site of all mice, and with 1% arginine, 0.1% S[…], or 1% S[…] at the second wound site. Each group contained 4 to 6 mice. The drugs were applied on the day of photography (Day 0, 1, 2, 3, 4, 7, 10, 14, 18). The areas of the wounds and the rates and qualities of healing were compared at each time point. Arginine was used as comparison due to the similarity of part of its action mechanisms to S[…].

- inhibition at 1 µM (Human recombinant COX II): 50%
Molecule: CS(=O)(=O)Nc1ccc([N+](=O)[O-])cc1Oc1ccccc1 [Nimesulide]

Molecule: C[C@]12CC[C@@H]3c4ccc(O)cc4CC[C@H]3[C@@H]1CC[C@@H]2O [Estradiol]
- Inc. (%.) ([1]; Estradiol 1 nM): −4%
- Mean OD ([1]; Estradiol 1 nM): 0.131
- Inc. (%.) ([1]; Estradiol 3 nM): 4%
- Mean OD ([1]; Estradiol 3 nM): 0.139
- Inc. (%.) ([1]; Estradiol 10 nM): 2%
- Mean OD ([1]; Estradiol 10 nM): 0.137
- Inc. (%.) ([1]; Estradiol 30 nM): −3%
- Mean OD ([1]; Estradiol 30 nM): 0.132
- Inc. (%.) ([1]; Estradiol 100 nM): −4%
- Mean OD ([1]; Estradiol 100 nM): 0.131

Molecule: Vitamin E
- Inc. (%.) ([1]; Vitamin E 3 uM): 0%
- Mean OD ([1]; Vitamin E 3 uM): 0.135
- Inc. (%.) ([1]; Vitamin E 10 uM): 9%
- Mean OD ([1]; Vitamin E 10 uM): 0.144
- Inc. (%.) ([1]; Vitamin E 30 uM): −4%
- Mean OD ([1]; Vitamin E 30 uM): 0.131
- Inc. (%.) ([1]; Vitamin E 100 uM): −9%
- Mean OD ([1]; Vitamin E 100 uM): 0.126
- Inc. (%.) ([1]; Vitamin E 300 uM): −16%
- Mean OD ([1]; Vitamin E 300 uM): 0.120

Molecule: Vitamin A
- Inc. (%) ([1]; Vitamin A 0.1 uM): −7%
- Mean OD ([1]; Vitamin A 0.1 uM): 0.128
- Inc. (%) ([1]; Vitamin A 0.3 uM): −4%
- Mean OD ([1]; Vitamin A 0.3 uM): 0.131
- Inc. (%) ([1]; Vitamin A 1 uM): −4%
- Mean OD ([1]; Vitamin A 1 uM): 0.131
- Inc. (%) ([1]; Vitamin A 3 uM): −12%
- Mean OD ([1]; Vitamin A 3 uM): 0.124
- Inc. (%) ([1]; Vitamin A 10 uM): −6%
- Mean OD ([1]; Vitamin A 10 uM): 0.129

Molecule: O=C(O[C@@H]1Cc2c(O)cc(O)cc2O[C@@H]1c1ccc(O)c(O)c1)c1cc(O)c(O)c(O)c1 [(−)-Epicatechin gallate]
- Inhibition (%) [2]: 50%

Molecule: N=C(N)NCCC[C@H](N)C(=O)O [arginine]
- Inflammation of wounds ([3]; day 3 post wounding, topical): no apparent sign of inflammation
- Re-epithelization/granulation process ([3]; day 7, topical): significantly facilitated
- Unhealed wound areas compared to the areas of the vehicle treated wounds (fraction) ([3]; day 10, applied at 1%): ⅓ to ½
- Healing of wounds ([3]; day 14, topical): completely healed
